6 compounds from PMC3765866, “Identification of novel PTPRQ phosphatase inhibitors based on the virtual screening with docking simulations” (Theoretical Biology & Medical Modelling, 2013) can be followed below.

Where two headings read alike, the source gives them in different places.

Holding throughout (type): biochemical
The target of test [1] is T1, PTPRQ (Homo sapiens, UniProt Q9UMZ3).
T1 construct: The catalytic domain of PTPRQ (PTPRQ-C, residues 2661–2948) was subcloned into pET28a; His tag; made in house; host or cells: Escherichia coli BL21 (DE3)
T1 sequence (Q9UMZ3 2015-2302 limits assumed): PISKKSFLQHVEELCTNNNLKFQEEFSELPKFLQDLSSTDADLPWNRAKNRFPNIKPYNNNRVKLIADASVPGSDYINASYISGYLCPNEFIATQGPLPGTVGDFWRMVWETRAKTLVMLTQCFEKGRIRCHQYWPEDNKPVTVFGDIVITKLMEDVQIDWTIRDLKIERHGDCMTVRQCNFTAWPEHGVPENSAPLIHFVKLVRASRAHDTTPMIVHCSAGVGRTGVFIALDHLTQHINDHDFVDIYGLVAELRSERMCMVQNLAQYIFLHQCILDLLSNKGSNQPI
In words: PTPRQ enzyme inhibition assay monitoring hydrolysis of pNPP. The note with it: for inhibition at 100 µM: inhibitor 100 μM, duplicates. Here is the method: The catalytic domain of PTPRQ (PTPRQ-C, residues 2661–2948) was subcloned into pET28a and overexpressed using Escherichia coli BL21 (DE3) strain. Cells were grown at 291 K after induction with 0.1 mM IPTG for 20 hours. His-tagged PTPRQ-C was purified by nickel-affinity chromatography. 150 compounds selected from the precedent virtual screening were evaluated for their in vitro inhibitory activity against the recombinant human PTPRQ. Initial inhibitor screening was performed by monitoring the extent of hydrolysis of p-Nitrophenyl Phosphate (pNPP) with a […] assay. The purified PTPRQ-C (1.5 μM), pNPP (5 mM), and a candidate inhibitor were incubated in the reaction mixture containing 50 mM Bis-Tris (pH 6.0), 2 mM dithiothreitol for 60 minutes. This enzymatic reaction was stopped with the addition of sodium hydroxide (0.5 M). The phosphatase activities were then checked by the absorbance changes due to the hydrolysis of the substrate at 405 nm. IC50 values of the inhibitors were determined from direct regression curve analysis.

Test [2] addresses T1, PTPRQ. In words: Inhibition of hydrolysis of PI(3,4,5)P3 by PTPRQ (malachite green). The note with it: 1.5 μM PTPRQ-C, 300 μM PI(3,4,5)P3, 100 μM inhibitor. The protocol:
Six PTPRQ inhibitors identified under the above reaction conditions were further investigated using PI(3,4,5)P3 as the substrate (Cayman Chemical). The enzymatic activity of PTPRQ was measured in 80 μL reaction mixture containing 50 mM Tris–HCl (pH 6.0), 10 mM dithiothreitol, 300 μM PI(3,4,5)P3, 100 μM inhibitor, and 1.5 μM of the purified catalytic domain of PTPRQ. The mixture was incubated for 60 minutes at 310 K, and the enzymatic reaction was stopped by the addition of 20 μL of malachite green/ammonium molybdate reagent (Bioassay systems). The absorbance was measured at 650 nm using a plate reader.

Test [3] addresses T2, PTP receptor type O (PTPRO) (Homo sapiens, UniProt Q16827).
T2 sequence (Q16827 30-1216): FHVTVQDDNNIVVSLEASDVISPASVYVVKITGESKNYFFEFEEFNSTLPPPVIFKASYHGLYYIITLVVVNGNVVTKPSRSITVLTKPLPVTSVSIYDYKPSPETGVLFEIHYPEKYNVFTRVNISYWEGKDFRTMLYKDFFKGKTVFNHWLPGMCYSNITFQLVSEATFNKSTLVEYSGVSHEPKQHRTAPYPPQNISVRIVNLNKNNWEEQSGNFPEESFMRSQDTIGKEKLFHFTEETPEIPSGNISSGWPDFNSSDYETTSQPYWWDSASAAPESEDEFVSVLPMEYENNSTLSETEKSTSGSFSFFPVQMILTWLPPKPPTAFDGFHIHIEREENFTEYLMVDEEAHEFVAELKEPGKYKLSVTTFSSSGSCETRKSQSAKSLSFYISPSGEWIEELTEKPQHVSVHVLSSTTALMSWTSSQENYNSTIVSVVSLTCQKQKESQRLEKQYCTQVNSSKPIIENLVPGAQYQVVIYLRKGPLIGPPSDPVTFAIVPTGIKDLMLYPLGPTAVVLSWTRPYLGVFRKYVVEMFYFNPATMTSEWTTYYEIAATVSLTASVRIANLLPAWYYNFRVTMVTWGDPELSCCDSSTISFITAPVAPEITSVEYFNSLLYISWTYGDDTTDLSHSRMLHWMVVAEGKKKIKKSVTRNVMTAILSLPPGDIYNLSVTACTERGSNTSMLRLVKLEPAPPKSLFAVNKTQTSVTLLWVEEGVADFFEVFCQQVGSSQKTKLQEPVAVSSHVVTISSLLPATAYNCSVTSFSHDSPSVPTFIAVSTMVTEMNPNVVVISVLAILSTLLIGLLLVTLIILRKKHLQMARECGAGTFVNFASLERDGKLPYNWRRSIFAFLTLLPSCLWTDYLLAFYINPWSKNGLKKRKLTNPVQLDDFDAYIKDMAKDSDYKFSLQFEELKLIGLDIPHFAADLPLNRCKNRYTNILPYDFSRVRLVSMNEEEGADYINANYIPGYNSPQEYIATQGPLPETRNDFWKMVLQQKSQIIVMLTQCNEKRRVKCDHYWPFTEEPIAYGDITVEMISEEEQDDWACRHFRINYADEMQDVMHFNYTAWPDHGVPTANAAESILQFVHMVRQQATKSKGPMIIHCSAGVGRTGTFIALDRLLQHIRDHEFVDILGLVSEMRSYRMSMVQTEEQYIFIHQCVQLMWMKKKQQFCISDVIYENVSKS
In words: Selectivity inhibition assay against PTPRO. Conditions: read-out: % inhibition at 100 μM for PTPRO. Here is the method:
Because the selectivity has been one of the most important issues in the development of phosphatase inhibitors, we compared the inhibitory activities of 1–6 for PTPRQ to those for its homologous protein, PTP receptor type O (PTPRO). These inhibition assays for selectivity were done in duplicates at the inhibitor concentration of 100 μM. […] The simultaneous inhibitions of PTPRQ and PTPRO by 1–6 are actually not surprising because they share a highly conserved catalytic module. To obtain the specific inhibitors for PTPRQ, therefore, it seems that some chemical groups should be added to 1–6 in such a way that the resulting derivatives can be stabilized not only in the active site but also in other peripheral binding pockets.

Setting [4] is: pNPP 5 mM substrate, 1.5 μM PTPRQ-C, pH 6.0, 60 minutes, read-out: IC50 against PTPRQ.

At PTPRQ [1], `CCOC(=O)Cn1cc(/C=C2/C(=O)NC(=O)N(c3cc(C)cc(C)c3)C2=O)c2ccccc21` [Compound 1] showed an IC50 of 29.9 µM and an inhibition at 100 µM of 71.1 ± 0.8%. Besides, at PTPRQ [2], the “inhibitory activity against the hydrolysis of PI(3,4,5)P3 by PTPRQ” value (shortened to “inhibitory activity”) is “significant inhibitory activity”. Also, in test [3], the inhibition at 100 µM was 94.4 ± 0.5%.
For `O=C1NC(=S)S/C1=C\c1cn(-c2ccccc2)nc1-c1ccccc1` [Compound 2], the inhibition at 100 µM is 57.7 ± 0.4% against PTPRQ [1] and 94.2 ± 1.5% in test [3] (inhibitor 100 μM, duplicates). Further, the IC50 on PTPRQ [1] (setting [4]) was 85.7 µM. Besides, the “inhibitory activity” value on PTPRQ [2] is “significant inhibitory activity”.
The like results for `CN1C(=O)/C(=C/c2ccc(OCc3cccc([N+](=O)[O-])c3)cc2)S/C1=N/c1cccc(C(=O)O)c1` [Compound 3] were, in that order, 50.9 ± 2.2%, 48.7 ± 2.1%, 63.8 µM and “effect of reducing PTPRQ activity”.
`COc1cccc(-c2nn(-c3ccccc3)cc2/C=C2\SC(=S)N(CCC(=O)O)C2=O)c1` [Compound 4]: the inhibition at 100 µM on PTPRQ [1] was 82.6 ± 0.2%; in test [3] (inhibitor 100 μM, duplicates), 95 ± 3.5%. Moreover, the IC50 on PTPRQ [1] (setting [4]) was 44.8 µM.
The like results for `O=C(O)CCN1C(=O)/C(=C\c2cccc(Oc3ccccc3)c2)SC1=S` [Compound 5] were, in that order, 62.5 ± 1.6%, 95 ± 0.8% and 65.3 µM.
On to `COC(=O)c1cccc(-c2ccc(/C=C3\C(=O)N(c4cccc(C(=O)O)c4)N=C3C)o2)c1` [Compound 6], for which the inhibition at 100 µM at PTPRQ [1] worked out at 57 ± 2.1%; in test [3] (inhibitor 100 μM, duplicates) it was 81.2 ± 0.9%. Moreover, at PTPRQ [1] (setting [4]), the IC50 came to 73.1 µM. In addition, the “inhibitory activity” value on PTPRQ [2] is reported as “effect of reducing PTPRQ activity”.

In general, IC50 refers to the concentration that inhibits the measured activity by half. For orientation: inhibition means the percentage by which the read-out fell short of the control.
